Here are results for 2 compounds from patent US20170152269A1, “FUSED BICYCLIC COMPOUNDS AND THEIR USE AS CDK INHIBITORS” (priority 2016, published 2017).

One experiment concerns the target T1, CDK1 (Homo sapiens, UniProt P06493).
T1 construct: purchased ThermoFisher (Waltham, Mass.)
The experiment can be described thus: Lance TR-FRET kinase assay, CDK1. The experiment is classed as biochemical. To be noted: ATP 30 μM, 60 min, read-out: CDK 1 inhibitory activity (IC50). As to the method:
(§1) Time Resolved-Fluorescent Resonance Energy Transfer (TR-FRET) was used to determine inhibitory ability of compounds A1˜A19, B1s and B1˜B12 against the enzymatic activity of CDK1, CDK2, CDK4, CDK5, CDK6, CDK7, and CDK9.
(§2) Inhibitory activity of compounds against CDK1/2/4/5/6/7 was assessed using Lance TR-FRET assay kits from Perkin Elmer Life Sciences (Waltham, Mass.). CDK1/2/4/5/6/7 enzymes were purchased from ThermoFisher (Waltham, Mass.). 2.5 μL of compound solutions and 2.5 μL of enzyme solutions in kinase assay buffer, which was 50 mM HEPES (pH 7.5) with 1 mM EGTA, 1 mM MgCl2, 2 mM DTT, and 0.01% Tween-20, were added into a white OptiPlate-384 plate followed by adding 5 μL of fluorescently labeled peptide substrates (Ulight-4E-BP1 for CDK4/6 and Ulight-MBP for CDK1/2/7/9) and ATP mixture solutions. Final concentrations of substrates and DMSO were 100 nM and 0.5%, respectively. Concentrations of ATP and different CDK enzymes were adjusted accordingly to achieve optimal enzymatic activities. Final CDK concentrations were 100, 500, 600, 100, 50, and 200 ng/well and ATP concentrations were 30, 50, 100, 20, 100, and 50 μM for CDK1/2/4/5/6/7, respectively. Assay plates were covered to protect from light and spun for 1 min at 700 RPM. Reactions were allowed to perform for 60 minutes in dark with gentle shaking at room temperature after which 5 μL of 40 mM EDTA in detection buffer was added to stop reactions followed 5 μL of the Eu labeled antibodies giving final concentrations of 2 nM to detect the phosphorylation of the peptide substrates. Assay plates were read with the EnVision™ Multilabel Reader in TR-FRET mode (excitation at 320 nm and emission at 665 nm). The percent of inhibition was calculated from the means of data points using the formula: 100−(Signalcompound−NoSignalbackground)*100/(Signalvehicle−NoSignalbackground). The IC50s were determined with GraphPad Prism by the non-linear sigmoidal curve fitting of data from 10 doses.
(In TR-FRET formats the signal depends on donor and acceptor labels being close together.)

Another experiment addresses T2, CDK2 (Homo sapiens, UniProt P24941).
T2 construct: purchased ThermoFisher (Waltham, Mass.)
Put plainly: Lance TR-FRET kinase assay, CDK2. The experiment is classed as biochemical. The following applies: ATP 50 μM, 60 min, read-out: CDK 2 inhibitory activity (IC50). As to the method:
as §1, §2

Another experiment concerns the target T3, CDK6 (Homo sapiens, UniProt Q00534).
T3 construct: purchased ThermoFisher (Waltham, Mass.)
The experiment can be described thus: Lance TR-FRET kinase assay, CDK6. In kind it is biochemical. As to the method: as §1, §2

The target of a further experiment is T4, CDK4 (Homo sapiens, UniProt P11802).
T4 construct: purchased ThermoFisher (Waltham, Mass.)
The experiment can be described thus: Lance TR-FRET kinase assay, CDK4. The experiment is classed as biochemical. To be noted: ATP 100 μM, 60 min, read-out: CDK 4 inhibitory activity (IC50). How it is done: as §2, with “2.5 μL of compound solutions and 2.5 μL of enzyme solutions in kinase assay buffer, which was 50 mM HEPES (pH 7.5) with 1 mM EGTA, 1 mM MgCl2, 2 mM DTT, and 0.01% Tween-20, were added into a white OptiPlate-384 plate followed by adding 5 μL of fluorescently labeled peptide substrates (Ulight-4E-BP1 for CDK4/6 and Ulight-MBP for CDK1/2/7/9) and ATP mixture solutions.” left out, “Assay plates were read with the EnVision™ Multilabel Reader in TR-FRET mode (excitation at 320 nm and emission at 665 nm).” left out

A further experiment concerns the target T5, CDK7 (Homo sapiens, UniProt P50613).
T5 construct: purchased ThermoFisher (Waltham, Mass.)
Put plainly: Lance TR-FRET kinase assay, CDK7. In kind it is biochemical. The following applies: ATP 50 μM, 60 min, read-out: CDK 7 inhibitory activity (IC50). As to the method:
as §2, with “2.5 μL of compound solutions and 2.5 μL of enzyme solutions in kinase assay buffer, which was 50 mM HEPES (pH 7.5) with 1 mM EGTA, 1 mM MgCl2, 2 mM DTT, and 0.01% Tween-20, were added into a white OptiPlate-384 plate followed by adding 5 μL of fluorescently labeled peptide substrates (Ulight-4E-BP1 for CDK4/6 and Ulight-MBP for CDK1/2/7/9) and ATP mixture solutions.” left out, “Assay plates were read with the EnVision™ Multilabel Reader in TR-FRET mode (excitation at 320 nm and emission at 665 nm).” left out

A further experiment addresses T6, CDK9/cyclin T1 (Homo sapiens, UniProt P50750).
T6 construct: purchased ThermoFisher (Waltham, Mass.)
Put plainly: LanthaScreen Eu kinase binding assay, CDK9. To be noted: tracer 236 displacement, CDK9/cyclin T1 5 nM, 1 hour; read-out: CDK 9 inhibitory activity (IC50). As to the method:
as §1
The CDK9 kinase inhibitory activity of compounds was tested in the LanthaScreen Eu kinase binding assay from ThermoFisher. LanthaScreen® Eu Kinase binding assays are based on the binding and displacement of a proprietary, Alexa Fluor® 647-labeled, ATP-competitive kinase inhibitor scaffold (kinase tracer) to CDK9. CDK9/cyclin T1, Kinase tracer 236 and LanthaScreen® Eu-anti-His Antibody were purchased form ThermoFisher (Waltham, Mass.). 5 μL of CDK9/cyclin T1 (final 5 nM)/antibody (final 2 nM) mixture, 5 μL of compound in kinase buffer, and 5 μL of tracer (final 30 nM) were added to wells of a white OptiPlate-384 plate in this specific order. Assay plates were covered to protect from light, spun for 1 min at 700 RPM and incubated at room temperature for 1 hour. Assay plates were read with the EnVision™ Multilabel Reader in TR-FRET mode (excitation at 320 nm and emission at 665 nm). The percent of inhibition was calculated from the means of data points using the formula: 100−(Signalcompound−NoSignalbackgound)*100/(Signalvehicle−NoSignalbackground). The IC50s were determined with GraphPad Prism by the non-linear sigmoidal curve fitting of data from 10 doses.

In a further experiment the target is T7, CDK5 (Homo sapiens, UniProt Q00535).
T7 construct: purchased ThermoFisher (Waltham, Mass.)
The experiment can be described thus: Lance TR-FRET kinase assay, CDK5. In kind it is biochemical. The following applies: ATP 20 μM, 60 min, read-out: CDK 5 inhibitory activity (IC50). How it is done:
as §1, §2

T7 sequence (Q00535 whole entry): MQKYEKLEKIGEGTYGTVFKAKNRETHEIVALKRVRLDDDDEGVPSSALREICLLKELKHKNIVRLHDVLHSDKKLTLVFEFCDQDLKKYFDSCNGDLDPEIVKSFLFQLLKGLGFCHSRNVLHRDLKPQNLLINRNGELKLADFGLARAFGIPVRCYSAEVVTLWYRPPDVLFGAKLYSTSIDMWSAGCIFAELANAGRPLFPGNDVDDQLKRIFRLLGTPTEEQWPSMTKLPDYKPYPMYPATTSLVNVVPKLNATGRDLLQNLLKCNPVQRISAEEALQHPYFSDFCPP
T7 sequence (Q15078 whole entry partner): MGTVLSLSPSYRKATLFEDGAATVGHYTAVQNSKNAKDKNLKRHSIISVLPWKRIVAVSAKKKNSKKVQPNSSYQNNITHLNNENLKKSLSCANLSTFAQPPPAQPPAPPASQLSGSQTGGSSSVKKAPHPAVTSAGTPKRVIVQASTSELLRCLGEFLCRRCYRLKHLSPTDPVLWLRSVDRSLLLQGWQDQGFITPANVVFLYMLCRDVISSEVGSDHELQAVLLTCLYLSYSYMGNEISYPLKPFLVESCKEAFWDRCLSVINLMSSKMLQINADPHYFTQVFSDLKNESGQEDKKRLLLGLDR
T4 sequence (P11802 whole entry): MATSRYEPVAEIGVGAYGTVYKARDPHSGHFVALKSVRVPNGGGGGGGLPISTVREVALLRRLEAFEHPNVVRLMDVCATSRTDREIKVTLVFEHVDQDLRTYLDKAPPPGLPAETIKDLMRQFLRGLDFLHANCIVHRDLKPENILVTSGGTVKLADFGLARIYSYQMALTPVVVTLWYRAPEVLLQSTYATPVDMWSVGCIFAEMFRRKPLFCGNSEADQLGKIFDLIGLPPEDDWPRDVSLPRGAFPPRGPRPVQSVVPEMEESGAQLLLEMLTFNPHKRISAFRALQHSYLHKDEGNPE
T4 sequence (P24385 whole entry partner): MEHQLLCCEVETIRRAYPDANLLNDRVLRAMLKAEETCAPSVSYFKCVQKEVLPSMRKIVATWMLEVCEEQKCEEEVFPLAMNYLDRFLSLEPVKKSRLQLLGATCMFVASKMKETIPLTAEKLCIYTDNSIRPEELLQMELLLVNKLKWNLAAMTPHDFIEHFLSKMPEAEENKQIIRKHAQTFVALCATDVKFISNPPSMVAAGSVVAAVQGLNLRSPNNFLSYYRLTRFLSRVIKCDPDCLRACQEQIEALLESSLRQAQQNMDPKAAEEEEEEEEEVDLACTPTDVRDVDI
T1 sequence (P06493 whole entry): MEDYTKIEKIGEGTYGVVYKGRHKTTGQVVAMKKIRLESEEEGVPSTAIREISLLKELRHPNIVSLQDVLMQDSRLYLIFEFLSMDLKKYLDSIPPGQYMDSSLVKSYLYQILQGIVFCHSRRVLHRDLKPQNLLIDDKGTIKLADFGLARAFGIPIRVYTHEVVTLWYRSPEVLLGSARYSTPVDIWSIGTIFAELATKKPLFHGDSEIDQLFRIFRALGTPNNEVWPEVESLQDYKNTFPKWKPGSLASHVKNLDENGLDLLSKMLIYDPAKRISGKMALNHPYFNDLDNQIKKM
T1 sequence (P14635 whole entry partner): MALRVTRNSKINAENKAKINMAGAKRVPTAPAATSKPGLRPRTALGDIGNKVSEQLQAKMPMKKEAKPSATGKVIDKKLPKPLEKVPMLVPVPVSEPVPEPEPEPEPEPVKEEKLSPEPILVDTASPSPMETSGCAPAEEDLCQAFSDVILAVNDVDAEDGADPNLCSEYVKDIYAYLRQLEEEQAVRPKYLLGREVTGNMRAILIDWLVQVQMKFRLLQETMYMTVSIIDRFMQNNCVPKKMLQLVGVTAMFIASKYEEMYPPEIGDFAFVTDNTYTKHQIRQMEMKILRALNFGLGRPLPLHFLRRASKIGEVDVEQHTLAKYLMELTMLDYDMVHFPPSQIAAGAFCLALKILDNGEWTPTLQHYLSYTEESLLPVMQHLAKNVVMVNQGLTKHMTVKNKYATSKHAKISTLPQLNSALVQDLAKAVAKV
T3 sequence (Q00534 whole entry): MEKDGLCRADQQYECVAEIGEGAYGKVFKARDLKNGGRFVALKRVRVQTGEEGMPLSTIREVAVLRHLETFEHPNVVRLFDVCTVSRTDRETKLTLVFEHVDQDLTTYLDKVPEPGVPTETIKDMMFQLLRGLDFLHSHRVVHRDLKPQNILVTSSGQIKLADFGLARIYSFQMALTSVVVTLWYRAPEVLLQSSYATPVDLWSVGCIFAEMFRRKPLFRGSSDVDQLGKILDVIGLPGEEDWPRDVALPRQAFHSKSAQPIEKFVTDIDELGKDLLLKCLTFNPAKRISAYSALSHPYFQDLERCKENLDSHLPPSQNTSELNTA
T3 sequence (P24385 whole entry partner): as the sequence (P24385 whole entry partner) above
T5 sequence (P50613 whole entry): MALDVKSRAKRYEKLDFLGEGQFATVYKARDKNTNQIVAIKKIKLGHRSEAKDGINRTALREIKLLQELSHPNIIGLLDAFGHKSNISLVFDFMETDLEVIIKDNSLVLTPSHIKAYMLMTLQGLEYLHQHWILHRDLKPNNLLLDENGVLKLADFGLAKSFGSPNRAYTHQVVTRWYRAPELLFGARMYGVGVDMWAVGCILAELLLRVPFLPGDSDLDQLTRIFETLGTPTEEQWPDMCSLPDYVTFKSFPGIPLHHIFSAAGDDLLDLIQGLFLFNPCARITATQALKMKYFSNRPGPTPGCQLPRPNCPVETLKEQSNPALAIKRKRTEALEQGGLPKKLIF
T5 sequence (P51946 whole entry partner): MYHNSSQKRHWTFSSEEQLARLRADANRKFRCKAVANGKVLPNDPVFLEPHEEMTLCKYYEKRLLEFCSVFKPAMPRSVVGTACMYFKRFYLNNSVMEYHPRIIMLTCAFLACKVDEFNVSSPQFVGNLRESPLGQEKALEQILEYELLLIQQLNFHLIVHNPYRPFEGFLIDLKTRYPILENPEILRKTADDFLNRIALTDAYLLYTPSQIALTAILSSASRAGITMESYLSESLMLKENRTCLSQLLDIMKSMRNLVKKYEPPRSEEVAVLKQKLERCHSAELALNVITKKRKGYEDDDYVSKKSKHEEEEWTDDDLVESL
T5 sequence (P51948 whole entry partner): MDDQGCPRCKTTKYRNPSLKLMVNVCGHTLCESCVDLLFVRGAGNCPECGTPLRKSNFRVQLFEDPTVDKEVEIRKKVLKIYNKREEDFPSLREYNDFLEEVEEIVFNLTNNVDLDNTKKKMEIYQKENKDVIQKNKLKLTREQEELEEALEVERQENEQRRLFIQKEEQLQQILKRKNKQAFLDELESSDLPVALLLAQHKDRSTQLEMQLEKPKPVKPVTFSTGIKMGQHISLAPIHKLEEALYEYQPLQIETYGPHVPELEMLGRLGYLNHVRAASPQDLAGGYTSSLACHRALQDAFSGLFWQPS
T6 sequence (P50750 whole entry): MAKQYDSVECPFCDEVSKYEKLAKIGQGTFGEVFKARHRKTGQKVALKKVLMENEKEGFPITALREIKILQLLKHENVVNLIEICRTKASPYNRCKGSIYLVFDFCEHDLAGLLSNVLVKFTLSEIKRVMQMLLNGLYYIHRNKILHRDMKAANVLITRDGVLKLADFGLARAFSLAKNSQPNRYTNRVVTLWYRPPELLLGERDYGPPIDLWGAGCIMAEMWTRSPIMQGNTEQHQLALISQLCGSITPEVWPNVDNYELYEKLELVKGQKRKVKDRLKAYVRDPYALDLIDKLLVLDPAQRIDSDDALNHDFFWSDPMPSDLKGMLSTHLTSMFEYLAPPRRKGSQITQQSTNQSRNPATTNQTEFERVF
T6 sequence (O60563 whole entry partner): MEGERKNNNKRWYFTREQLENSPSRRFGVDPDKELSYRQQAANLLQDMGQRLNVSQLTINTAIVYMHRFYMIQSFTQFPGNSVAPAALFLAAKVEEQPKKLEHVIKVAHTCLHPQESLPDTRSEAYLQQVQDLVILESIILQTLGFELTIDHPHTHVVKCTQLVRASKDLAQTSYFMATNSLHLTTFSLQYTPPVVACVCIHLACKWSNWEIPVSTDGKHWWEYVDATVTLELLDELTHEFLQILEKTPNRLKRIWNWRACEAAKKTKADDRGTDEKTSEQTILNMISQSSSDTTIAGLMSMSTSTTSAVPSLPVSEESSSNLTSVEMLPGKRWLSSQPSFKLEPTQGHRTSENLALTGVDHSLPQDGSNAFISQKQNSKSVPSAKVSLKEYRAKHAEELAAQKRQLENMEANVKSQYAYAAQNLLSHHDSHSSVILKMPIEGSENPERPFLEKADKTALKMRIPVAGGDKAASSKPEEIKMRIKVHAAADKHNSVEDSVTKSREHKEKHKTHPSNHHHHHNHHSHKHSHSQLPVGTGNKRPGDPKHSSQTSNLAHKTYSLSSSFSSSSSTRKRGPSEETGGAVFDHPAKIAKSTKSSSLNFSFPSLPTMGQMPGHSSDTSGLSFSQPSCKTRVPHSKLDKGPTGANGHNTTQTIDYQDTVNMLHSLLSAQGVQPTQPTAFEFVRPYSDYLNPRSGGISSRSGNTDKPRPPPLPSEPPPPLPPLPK

As usually defined, the IC50 is the midpoint of a concentration-inhibition curve. `CN(C)C(=O)c1sc2cnc(Nc3ccc(N4CCNCC4)cn3)cc2c1C1CCCCC1` [Compound A5, 3-cyclohexyl-N,N-dimethyl-5-((5-(piperazin-1-yl)pyridin-2-yl)amino)thieno[2,3-c]pyridine-2-carboxamide]: the IC50 was found to be 39.5 nM on CDK1; 942 nM at CDK2; 1.1 nM on CDK6; 1.4 nM at CDK4; 3290 nM on CDK7; 13.4 nM on CDK9/cyclin T1. Besides, the IC50 at CDK5 was 266 nM.

Take `N#Cc1sc2cnc(Nc3ccc(N4CCNCC4)cn3)cc2c1C1CCCC1` [Compound B1, 3-cyclopentyl-5-((5-(piperazin-1-yl)pyridin-2-yl)amino)thieno[2,3-c]pyridine-2-carbonitrile]: the IC50 on CDK1 was 5.4 nM; at CDK2, 2.8 nM; on CDK6, 0.3 nM; on CDK4, 1.1 nM; on CDK7, 14.9 nM; at CDK9/cyclin T1, 1.3 nM. Further, the IC50 at CDK5 stood at 24.4 nM.
